Earlier results, collected in patent US20010034320A1, “NK1-receptor antagonists for treating restless legs syndrome” (priority 2000, published 2001).

System: Restless Legs Syndrome (RLS)
Settings: for effect on RLS complaint in therapy trials: RLS patients, therapy trials described in the background
[1] = objective polysomnographic measuring parameters, daily doses 0.1-0.9 mg

| SMILES | effect on RLS complaint in therapy trials | quality of sleep, frequency of waking or periodic leg movements in sleep (PLMS) [1] | sleep latency [1] | perceived symptoms such as paraesthesia, compulsive movement and tiredness during the day (patient-reported, daily doses 0.1-0.9 mg, 4 open trials, 2 double-blind placebo-controlled trials and a single case study) |
| --- | --- | --- | --- | --- |
| NC(=O)N1c2ccccc2C=Cc2ccccc21 [Carbamazepine] | only partial relief from the complaint |  |  |  |
| N[C@@H](Cc1ccc(O)c(O)c1)C(=O)O [L-dopa, levodopa] | significant alleviation of the complaint |  |  |  |
| Clc1cccc(Cl)c1NC1=NCCN1 [clonidine, 2-(2,6-dichloroanilino)-4,5-dihydroimidazole] |  | not affected | shortened | (statistically significant) reduction |
